Results published in patent publication US20240190862A1 (AMGEN INC., priority 2019, published 2024).
Where two headings read alike, the source gives them in different places.

Experiments:
GDP-KRAS G12D = GDP-KRAS G12D (Homo sapiens, UniProt P01116, C118A/G12D); assay: GDP-KRAS G12D RF-MS Assay; format: binding; conditions: 100 μM inhibitor, 20 h incubation, 2 uM KRAS G12D
Description: GDP-KRAS G12D RF-MS Assay: MS assays were performed in the following buffer: 25 mM HEPES pH 7.4, 20 mM MgCl2, 10 mM NaCl, 3% DMSO, 0.0005% CHAPS with 100 μM GDP made fresh and added to the assay buffer. The final concentration of KRAS G12D was 2 uM. Assay incubation times were 20 h and the inhibitor concentration was 100 μM. Greiner polypropylene clear V-bottom plates were used for the mass spectrometry assays. Typically, the reaction was initiated by addition of KRAS G12D to a well containing inhibitor followed by Rapidfire MS analysis. Relative % Bound values at the various incubation times were used to estimate a kobs value at 100 uM inhibitor.
RapidFire Sample Liquid handling System: The RapidFire liquid handling unit used was the RF 360 model. Solvents were delivered by Agilent 1260 Infinity pumps. The instrument control software was the Agilent RapidFire High Throughput MS-system software (v4.0.12333.14274). A single C4 Type A (Agilent technologies, G9203) SPE-cartridge was used for these experiments. A volume of 10 μL (sample loop determined) was removed from each well of a 384-well plate by using an aspiration time of 300 ms. The sample load/wash time was 6000 ms at a flow rate of 1.25 mL/min (H2O, 0.1% v/v formic acid, 0.05% v/v trifluoroacetic acid); elution time was 7000 ms (acetonitrile, 0.1% v/v formic acid, 0.05% v/v trifluoroacetic acid); re-equilibration time was 700 ms at a flow rate of 1.25 mL/min (H2O, 0.1% v/v formic acid, 0.05% v/v trifluoroacetic acid).
Mass Spectrometry: Mass spectrometric data was acquired on an Agilent 6530 quadrupole time-of-flight (ToF) MS system, operated with a dual Agilent Jet Spray (AJS) ion source, in positive ionization mode. The instrument parameters were as follows: gas temperature 350° C.; drying gas 5 L/min; nebulizer 60 psi; sheath gas 350° C.; sheath gas flow 11 L/min; capillary 3.5 kV (0.037 μA); nozzle 1.75 kV; fragmentor 200 V; skimmer 75 V; octapole RF 800 V peak-to-peak. Data was acquired at the rate of 5 spectra/s. The mass scale was calibrated using the Agilent positive ion tune mix, over the m/z range 300-3200. The instrument control software was Agilent MassHunter Workstation Data Acquisition (vB.05.01).
Mass Spectrometry Data Processing and Informatics: All data processing was performed using a HP Z620, 64-bit, 12-processor, Windows 7 PC, using a combination of Agilent MassHunter Qualitative Analysis (B.05.00) Agilent RapidFire control software (v4.0.12333.14070) and the Agilent DA Reprocessor Offline Utilities B.05.00, Build 162. The SPE-MS data acquired from the RapidFire-MS system is typically a single SPE-MS data file composed of multiple injection events. For effective charge state extraction, SPE-peak integration and subsequent MS-spectral deconvolution, the single SPE-MS data file is split into single injection events. This is typically performed off-line and achieved through the RapidFire User Interface software, using the Agilent RapidFire control software (v4.0.12333.14070) using the Convert MS Data option. Once the individual injection-event MS-data files have been produced, they are all batch processed using the DA Reprocessor Offline Utilities (B.05.00, Build 162, Agilent). For batch processing a method file was created using Agilent MassHunter Qualitative Analysis B.05.00. The details of this method file are contained within the BioConfirm Workflow and are as follows: Integrate (MS), Integrator Selection: General, smooth option selected; detector point sampling 1; start threshold 5.0; stop threshold 0.0; filtering 5 point; peak location, top. Extract (MS): Peak Spectrum Extraction (MS) within m/z 800-1400. Deconvolute (MS) Maximum Entropy: mass range 19,000-21,000 Daltons; Mass step 1.0 Da; S/N threshold 20.0; Use limited m/z range 800-1400; adduct proton; isotope peak width automatic; minimum consecutive charge states 5. […]

[1] = biological target: GDP-bound KRAS protein (aa 1-169) G12D/C118A (Homo sapiens (Human), UniProt P01116, C118A/G12D); assay: Coupled Nucleotide Exchange Assay (KRAS G12D); format: biochemical; conditions: 20 h compound pre-incubation; read-out: GDP KRAS G12D 20 h Coupled Exchange IC50 IP
GDP-bound KRAS protein (aa 1-169) G12D/C118A, sequence (P01116 other isoform, or with tags, fused parts or gaps G12D/C118A): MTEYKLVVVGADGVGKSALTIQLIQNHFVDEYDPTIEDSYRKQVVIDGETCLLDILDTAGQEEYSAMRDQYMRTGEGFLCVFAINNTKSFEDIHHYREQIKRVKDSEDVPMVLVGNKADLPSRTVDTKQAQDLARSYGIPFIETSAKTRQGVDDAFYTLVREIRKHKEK
Description: (§1) Coupled Nucleotide Exchange Assay: Purified GDP-bound KRAS protein (aa 1-169), containing either G12C or G12D, as well as C118A amino acid substitutions and an N-terminal His-tag, was pre-incubated in assay buffer (25 mM HEPES pH 7.4, 10 mM MgCl2, and 0.01% Triton X-100) with a compound dose-response titration for either 5 min or 20 hours (see Table 15). Following compound pre-incubation, purified SOS protein (aa 564-1049) and GTP (Roche 10106399001) were added to the assay wells and incubated for an additional 30 min. To determine the extent of inhibition of SOS-mediated nucleotide exchange, purified GST-tagged cRAF (aa 1-149), nickel chelate AlphaLISA acceptor beads (PerkinElmer AL108R), and AlphaScreen glutathione donor beads (PerkinElmer 6765302) were added to the assay wells and incubated for 10 minutes. The assay plates were then read on a PerkinElmer EnVision Multilabel Reader, using AlphaScreen® technology, and data were analyzed using a 4-parameter logistic model to calculate IC50 values.

[2] = biological target: GDP-bound KRAS protein (aa 1-169) G12C/C118A (Homo sapiens (Human), UniProt P01116, C118A/G12C); assay: Coupled Nucleotide Exchange Assay (KRAS G12C); format: biochemical
GDP-bound KRAS protein (aa 1-169) G12C/C118A, sequence (P01116 other isoform, or with tags, fused parts or gaps G12C/C118A): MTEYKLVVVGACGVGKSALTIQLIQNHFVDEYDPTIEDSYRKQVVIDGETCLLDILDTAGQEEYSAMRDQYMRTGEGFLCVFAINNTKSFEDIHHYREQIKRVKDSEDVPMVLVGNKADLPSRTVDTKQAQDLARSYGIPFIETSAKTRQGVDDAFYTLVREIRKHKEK
Description: as §1

[3] = 5 min compound pre-incubation, read-out: GDP KRAS G12C 5 min Coupled Exchange IC50 IP
[4] = 20 h compound pre-incubation, read-out: GDP KRAS G12C 20 h Coupled Exchange IC50 IP

Structure (SMILES) | GDP-KRAS G12D RF-MS 100 μM 20 h Relative % Bound (GDP-KRAS G12D) [%] | IC50 [1] [µM] | IC50 [2, 3] [nM] | IC50 [2, 4] [nM]
Cc1ccnc(C(C)C)c1-n1c(=O)nc(N2CCCC3C2CN3C(=O)C2CO2)c2cc(Cl)c(-c3ccccc3F)nc21 (stereo not drawn) [Example 33, 6-Chloro-7-(2-fluorophenyl)-1-(2-isopropyl-4-methylpyridin-3-yl)-4-(7-(oxirane-2-carbonyl)-2,7-diazabicyclo[4.2.0]octan-2-yl)pyrido[2,3-d]pyrimidin-2(1H)-one] | 2 | > 250 | 60900 | 261
Cc1ccnc(C(C)C)c1-n1c(=O)nc(N[C@@H]2CCN(C(=O)C3CO3)C2)c2cc(Cl)c(-c3ccccc3F)nc21 (stereo partly drawn) [Example 32, 6-Chloro-7-(2-fluorophenyl)-1-(2-isopropyl-4-methylpyridin-3-yl)-4-(((3R)-1-(oxirane-2-carbonyl)pyrrolidin-3-yl)amino)pyrido[2,3-d]pyrimidin-2(1H)-one] | 3.1 | > 250 | 101000 | 1850
Cc1ccnc(C(C)C)c1-n1c(=O)nc(N2C[C@@H](C)N(C(=O)[C@H]3CO3)C[C@@H]2C)c2cc(Cl)c(-c3c(O)cccc3F)nc21 [Example 36, 6-Chloro-4-((2S,5R)-2,5-dimethyl-4-((R)-oxirane-2-carbonyl)piperazin-1-yl)-7-(2-fluoro-6-hydroxyphenyl)-1-(2-isopropyl-4-methylpyridin-3-yl)pyrido[2,3-d]pyrimidin-2(1H)-one] | 8.1 | > 250 | 653 | 24
Cc1ccnc(C(C)C)c1-n1c(=O)nc(N2CCN(C(=O)[C@H]3CO3)C[C@@H]2C)c2cc(Cl)c(-c3ccccc3F)nc21 (atropisomer, axis not shown) [Example 16, 6-Chloro-7-(2-fluorophenyl)-1-(2-isopropyl-4-methylpyridin-3-yl)-4-((S)-2-methyl-4-((R)-oxirane-2-carbonyl)piperazin-1-yl)pyrido[2,3-d]pyrimidin-2(1H)-one] | 3.4 | 190 | 3780 | 27
Cc1ccnc(C(C)C)c1-n1c(=O)nc(NC2CN(C(=O)C3CO3)C2)c2cc(Cl)c(-c3ccccc3F)nc21 (stereo not drawn) [Example 31, 6-Chloro-7-(2-fluorophenyl)-1-(2-isopropyl-4-methylpyridin-3-yl)-4-((1-(oxirane-2-carbonyl)azetidin-3-yl)amino)pyrido[2,3-d]pyrimidin-2(1H)-one] | 2.2 | > 250 | 146000 | 1570
Cc1ccnc(C(C)C)c1-n1c(=O)nc(N(C)C2CN(C(=O)[C@H]3CO3)C2)c2cc(Cl)c(-c3ccccc3F)nc21 [Example 30, (R)-6-chloro-7-(2-fluorophenyl)-1-(2-isopropyl-4-methylpyridin-3-yl)-4-(methyl(1-(oxirane-2-carbonyl)azetidin-3-yl)amino)pyrido[2,3-d]pyrimidin-2(1H)-one] | 1.4 | > 250 | > 250000 | > 31300
Cc1ccnc(C(C)C)c1-n1c(=O)nc(N2CCN(C(=O)[C@@H]3O[C@H]3CO)C[C@@H]2C)c2cc(Cl)c(-c3ccccc3F)nc21 [Example 22, 6-Chloro-7-(2-fluorophenyl)-4-((S)-4-((2R,3S)-3-(hydroxymethyl)oxirane-2-carbonyl)-2-methylpiperazin-1-yl)-1-(2-isopropyl-4-methylpyridin-3-yl)pyrido[2,3-d]pyrimidin-2(1H)-one] |  | > 250 | 6260 | 64
Cc1ccnc(C(C)C)c1-n1c(=O)nc(N2CCN(C(=O)COc3c(Cl)cccc3Cl)C[C@@H]2C)c2cc(Cl)c(-c3ccccc3F)nc21 [Example 7, (S)-6-Chloro-4-(4-(2-(2,6-dichlorophenoxy)acetyl)-2-methylpiperazin-1-yl)-7-(2-fluorophenyl)-1-(2-isopropyl-4-methylpyridin-3-yl)pyrido[2,3-d]pyrimidin-2(1H)-one] |  | > 250 | > 250000 | 26200

Now from value to compound:

GDP-KRAS G12D RF-MS 100 μM 20 h Relative % Bound (GDP-KRAS G12D) [%] | IC50 [1] [µM] | IC50 [2, 3] [nM] | IC50 [2, 4] [nM] | Structure (SMILES)
15.8 | > 250 | 560 | 15 | Cc1ccnc(C(C)C)c1-n1c(=O)nc(N2C[C@@H](C)N(C(=O)[C@H]3CO3)C[C@@H]2C)c2cc(Cl)c(-c3c(N)cccc3F)nc21 [Example 37, 7-(2-Amino-6-fluorophenyl)-6-chloro-4-((2S,5R)-2,5-dimethyl-4-((R)-oxirane-2-carbonyl)piperazin-1-yl)-1-(2-isopropyl-4-methylpyridin-3-yl)pyrido[2,3-d]pyrimidin-2(1H)-one]
3.4 | > 250 | 167000 | 1360 | Cc1ccnc(C(C)C)c1-n1c(=O)nc(N2CC[C@H](NC(=O)C3CO3)C2)c2cc(Cl)c(-c3ccccc3F)nc21 (stereo partly drawn) [Example 35, N—((S)-1-(6-chloro-7-(2-fluorophenyl)-1-(2-isopropyl-4-methylpyridin-3-yl)-2-oxo-1,2-dihydropyrido[2,3-d]pyrimidin-4-yl)pyrrolidin-3-yl)oxirane-2-carboxamide]
2.9 | > 250 | > 250000 | > 250000 | Cc1ccnc(C(C)C)c1-n1c(=O)nc(N2CCC[C@H](NC(=O)C3CO3)C2)c2cc(Cl)c(-c3ccccc3F)nc21 (stereo partly drawn) [Example 34, N—((S)-1-(6-Chloro-7-(2-fluorophenyl)-1-(2-isopropyl-4-methylpyridin-3-yl)-2-oxo-1,2-dihydropyrido[2,3-d]pyrimidin-4-yl)piperidin-3-yl)oxirane-2-carboxamide]
